From publication PMC6981454, “Promising 2,6,9-Trisubstituted Purine Derivatives for Anticancer Compounds: Synthesis, 3D-QSAR, and Preliminary Biological Assays” (International Journal of Molecular Sciences, 2019)

How the values were obtained:
[1] = system: p53; experiment: p53-dependent transcriptional activity reporter assay (β-galactosidase) in Arn-8 cells; type: cell-based, human; settings: p53 reporter assays
Procedure: Table S3. Results of p53 activity of compounds 4a-u and 7a-j.
Compound fold p53 activity […]
p53-dependent transcriptional activity
To measure p53-dependent transcriptional activity, -galactosidase activity was determined in the human melanoma cell line Arn-8, stably transfected with a p53-responsive reporter construct pRGC foslacZ as described before. After 24 h incubation with the inhibitors, the cells were permeabilized with 0.3% Triton X-100 for 15 min, and then 4-methylumbelliferon-ß-D-galactopyranoside was added as a substrate to a final concentration of 80 µM. […]
fluorescence was measured at 355/460 nm (ex/em) with a Fluoroskan Ascent microplate reader […]
Figure S6. Dose-response effect of roscovitine on p53 activity in ARN8 cells (control experiment).
(1 picture or pasted object on this page, not shown here)

[2] = system: HL-60 cells; experiment: Cell viability by propidium iodide flow cytometry; type: cell-based, human; settings: HL-60, 50 μM, 24 h, PI staining
From the text: Next, in order to determinate the cell death type induced by the most promising compounds, we performed a flow cytometry analysis of cell viability in cell line HL-60 treated with the most promising compounds (selected according to their IC50 values and SI). The HL-60 cancer cells were chosen due to their sensitivity to prepared compounds. […] As a preliminary apoptosis filter, propidium iodide (PI) staining was used through flow cytometry analysis which discriminated a population of viable cells impermeable to PI (PI negative) from necrotic cells PI-permeable (PI positive) and apoptotic cells (the difference of the previous two). The results are shown in Figure 7, illustrating that all purine derivatives tested induced apoptosis on HL-60 cells. Around 40% of apoptotic cells were detected in a culture treated with compounds 7a and 7i, 30% by 7e, 7g, and 7h and 70% by 7d and 7j. […] (For dot plots, see Supplementary Information Figures S1–S3.)
Cell viability was analyzed by flow cytometry as previously described. In this assay, after setting the baseline to exclude cell debris, cells impermeable to propidium iodide (PI negative) are considered as viable. Two populations of PI-permeable dead cells are distinguished based on fluorescence intensity, corresponding to either hypodiploid apoptotic cells or necrotic cells with intact DNA. Here, HL60 cells were incubated with concentrations of 50 µM of each compound for 24 h at 37 °C. Cells were harvested and stained with 10 µg/mL of propidium iodide to determine cell viability. Samples containing roughly 1 × 10^4 cells were evaluated by flow cytometry (FACScanto II; Becton Dickinson, Mountain View, CA) and analyzed using FCS Express v6 software. Three independent biological replicates were performed.

Question: For `O=[N+]([O-])c1ccc(N2CCN(c3nc(Cl)nc4c3ncn4C3CCCC3)CC2)cc1` [7h, 2-Chloro-9-cyclopentyl-6-(4-(4-nitrophenyl)piperazin-1-yl)-9H-purine], which “effect on p53 activation” value [1] is on record?
Answer: no effect on p53 activation

Question: And the apoptotic cells [2]?
Answer: ~30%
